In BindingDB's records for doi:10.1016/j.chembiol.2005.02.004 (Purdue University, 2005):
Numbered stars: 1 amine (or outer) side, 2 acyl side, 3 side chain; on linkers, the order of the positions; unused ones are H or OH. Bridge positions count the residues as written; N and C are the ends. Square brackets hold non-standard residues; d marks the D form. Peptide text beside a SMILES is read from it. I, II: the chains in the order shown. * marks the point of attachment. C16 diacid = O=C(O)CCCCCCCCCCCCCCC(=O)*; X1 = NC(O)C[C@H](N[*:1])C(=O)[*:2]

molecular target: T1, Capsid scaffolding protein (Human herpesvirus 1 (strain 17), UniProt P10210); experiment: Competitive Assay; details: pH 5.52
T1 sequence (P10210 whole entry): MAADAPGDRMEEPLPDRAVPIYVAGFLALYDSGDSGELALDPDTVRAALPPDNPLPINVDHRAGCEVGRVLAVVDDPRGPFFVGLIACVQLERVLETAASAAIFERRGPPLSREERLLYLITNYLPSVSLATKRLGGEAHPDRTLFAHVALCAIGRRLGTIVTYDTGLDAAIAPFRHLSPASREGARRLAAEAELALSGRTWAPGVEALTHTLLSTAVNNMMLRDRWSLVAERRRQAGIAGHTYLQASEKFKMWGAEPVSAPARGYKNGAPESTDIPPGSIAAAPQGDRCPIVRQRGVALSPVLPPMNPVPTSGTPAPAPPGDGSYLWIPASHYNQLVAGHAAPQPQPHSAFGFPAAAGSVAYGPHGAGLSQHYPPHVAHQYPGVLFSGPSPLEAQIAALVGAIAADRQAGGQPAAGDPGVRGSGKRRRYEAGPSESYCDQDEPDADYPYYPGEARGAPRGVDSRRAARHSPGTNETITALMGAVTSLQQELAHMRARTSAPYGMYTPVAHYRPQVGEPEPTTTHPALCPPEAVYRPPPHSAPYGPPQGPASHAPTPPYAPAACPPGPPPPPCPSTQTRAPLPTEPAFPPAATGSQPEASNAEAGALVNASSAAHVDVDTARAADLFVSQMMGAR
Source text: The competitive assay requires two inhibitors to act by a purely competitive mechanism, whereas the binding site of on the inhibitors has been established.

In order of falling IC50:
1. CC(C)C[C@H](NC(=O)[C@@H](NC(=O)CCCCCCCCCCCCCCC(=O)N[C@H](CC(N)=O)C(=O)N[C@H](Cc1ccccc1)C(=O)O)C(C)O)C(=O)N[C@@H](Cc1ccccc1)C(N)=O (stereo partly specified) [Pepstatin analog, 2]  5900 nM
2. CC(C)C[C@H](NC(=O)[C@@H](NC(=O)CCCCCCCCCCCCCCC(=O)N[C@H](CC(N)=O)C(=O)N[C@@H](Cc1ccccc1)C(=O)O)C(C)O)C(=O)NCCc1ccccc1 (stereo partly specified) [Pepstatin analog, 3]  5800 nM
3. COc1cccc(CCNC(=O)[C@@H](CC(C)C)NC(=O)[C@H](NC(=O)CCCCCCCCCCCCCCC(=O)N[C@H](CC(N)=O)C(=O)N[C@@H](Cc2ccccc2)C(=O)O)C(C)O)c1 (stereo partly specified) [Pepstatin analog, 5]  4900 nM
4. CC(C)C[C@@H](NC(=O)[C@H](NC(=O)CCCCCCCCCCCCCCC(=O)N[C@H](CC(N)=O)C(=O)N[C@@H](Cc1ccccc1)C(=O)O)C(C)O)C(=O)NCCc1cccc(O)c1 (stereo partly specified) [Pepstatin analog, 4]  4400 nM
5. CC[C@H](C)[C@H](NC(=O)[C@H](CCC(N)=O)NC(=O)[C@@H]1CCCN1C(=O)CCCCCCCCCCCCCCC(=O)N[C@@H](CO)C(=O)N[C@H](C(=O)N[C@H](C(=O)N[C@@H](CC(N)O)C(=O)N[C@@H](Cc1ccccc1)C(=O)O)C(C)C)[C@@H](C)O)C(=O)N[C@H](C(=O)N[C@@H](CC(C)C)C(=O)N[C@@H](Cc1c[nH]c2ccccc12)C(=O)O)[C@@H](C)O (stereo partly specified) [Pepstatin analog, 1] (I: PQITLW-OH / II: STV[X1]F-OH; linker I:N-II:N via C16 diacid)  350 nM

In order of rising Ki:
1. CC[C@H](C)[C@H](NC(=O)[C@H](CCC(N)=O)NC(=O)[C@@H]1CCCN1C(=O)CCCCCCCCCCCCCCC(=O)N[C@@H](CO)C(=O)N[C@H](C(=O)N[C@H](C(=O)N[C@@H](CC(N)O)C(=O)N[C@@H](Cc1ccccc1)C(=O)O)C(C)C)[C@@H](C)O)C(=O)N[C@H](C(=O)N[C@@H](CC(C)C)C(=O)N[C@@H](Cc1c[nH]c2ccccc12)C(=O)O)[C@@H](C)O (stereo partly specified) [Pepstatin analog, 1] (I: PQITLW-OH / II: STV[X1]F-OH; linker I:N-II:N via C16 diacid)  220 nM
2. CC(C)C[C@@H](NC(=O)[C@H](NC(=O)CCCCCCCCCCCCCCC(=O)N[C@H](CC(N)=O)C(=O)N[C@@H](Cc1ccccc1)C(=O)O)C(C)O)C(=O)NCCc1cccc(O)c1 (stereo partly specified) [Pepstatin analog, 4]  1130 nM
3. COc1cccc(CCNC(=O)[C@@H](CC(C)C)NC(=O)[C@H](NC(=O)CCCCCCCCCCCCCCC(=O)N[C@H](CC(N)=O)C(=O)N[C@@H](Cc2ccccc2)C(=O)O)C(C)O)c1 (stereo partly specified) [Pepstatin analog, 5]  1290 nM
4. CC(C)C[C@H](NC(=O)[C@@H](NC(=O)CCCCCCCCCCCCCCC(=O)N[C@H](CC(N)=O)C(=O)N[C@H](Cc1ccccc1)C(=O)O)C(C)O)C(=O)N[C@@H](Cc1ccccc1)C(N)=O (stereo partly specified) [Pepstatin analog, 2]  3000 nM

molecular target: T1, Capsid scaffolding protein; experiment: Zhang-Poorman Assay; details: pH 5.52

In order of falling IC50:
1. CC(C)C[C@@H](NC(=O)[C@H](NC(=O)CCCCCCCCCCCCCCC(=O)N[C@H](CC(N)=O)C(=O)N[C@@H](Cc1ccccc1)C(=O)O)C(C)O)C(=O)NCCc1ccc(O)cc1 (stereo partly specified) [Pepstatin analog, 6]  5800 nM
2. COc1ccc(CCNC(=O)[C@@H](CC(C)C)NC(=O)[C@H](NC(=O)CCCCCCCCCCCCCCC(=O)N[C@H](CC(N)=O)C(=O)N[C@@H](Cc2ccccc2)C(=O)O)C(C)O)cc1OC (stereo partly specified) [Pepstatin analog, 9]  4300 nM
3. CC(C)C[C@@H](NC(=O)[C@H](NC(=O)CCCCCCCCCCCCCCC(=O)N[C@H](CC(N)=O)C(=O)N[C@@H](Cc1ccccc1)C(=O)O)C(C)O)C(=O)NCCc1ccc(O)c(O)c1 (stereo partly specified) [Pepstatin analog, 8]  2900 nM
4. COc1ccc(CCNC(=O)[C@@H](CC(C)C)NC(=O)[C@H](NC(=O)CCCCCCCCCCCCCCC(=O)N[C@H](CC(N)=O)C(=O)N[C@@H](Cc2ccccc2)C(=O)O)C(C)O)cc1 (stereo partly specified) [Pepstatin analog, 7]  2700 nM
5. CC(C)C[C@@H](NC(=O)[C@H](NC(=O)CCCCCCCCCCCCCCC(=O)N[C@H](CC(N)=O)C(=O)N[C@@H](Cc1ccccc1)C(=O)O)C(C)O)C(=O)NCCc1ccc(N)cc1 (stereo partly specified) [Pepstatin analog, 10]  2500 nM
6. CC(C)C[C@@H](NC(=O)[C@H](NC(=O)CCCCCCCCCCCCCCC(=O)N[C@H](CC(N)=O)C(=O)N[C@@H](Cc1ccccc1)C(=O)O)C(C)O)C(=O)NCCc1ccc(Oc2ccccc2)cc1 (stereo partly specified) [Pepstatin analog, 11]  730 nM
7. CC(C)C[C@@H](NC(=O)[C@H](NC(=O)CCCCCCCCCCCCCCC(=O)N[C@H](CC(N)=O)C(=O)N[C@@H](Cc1ccccc1)C(=O)O)C(C)O)C(=O)NCCc1ccc(Oc2ccc(O)cc2)cc1 (stereo partly specified) [Pepstatin analog, 12]  360 nM

In order of rising Ki:
1. CC(C)C[C@@H](NC(=O)[C@H](NC(=O)CCCCCCCCCCCCCCC(=O)N[C@H](CC(N)=O)C(=O)N[C@@H](Cc1ccccc1)C(=O)O)C(C)O)C(=O)NCCc1ccc(Oc2ccc(O)cc2)cc1 (stereo partly specified) [Pepstatin analog, 12]  96 nM
2. CC(C)C[C@@H](NC(=O)[C@H](NC(=O)CCCCCCCCCCCCCCC(=O)N[C@H](CC(N)=O)C(=O)N[C@@H](Cc1ccccc1)C(=O)O)C(C)O)C(=O)NCCc1ccc(Oc2ccccc2)cc1 (stereo partly specified) [Pepstatin analog, 11]  175 nM
3. CC(C)C[C@@H](NC(=O)[C@H](NC(=O)CCCCCCCCCCCCCCC(=O)N[C@H](CC(N)=O)C(=O)N[C@@H](Cc1ccccc1)C(=O)O)C(C)O)C(=O)NCCc1ccc(O)c(O)c1 (stereo partly specified) [Pepstatin analog, 8]  600 nM
4. CC(C)C[C@@H](NC(=O)[C@H](NC(=O)CCCCCCCCCCCCCCC(=O)N[C@H](CC(N)=O)C(=O)N[C@@H](Cc1ccccc1)C(=O)O)C(C)O)C(=O)NCCc1ccc(N)cc1 (stereo partly specified) [Pepstatin analog, 10]  650 nM
5. COc1ccc(CCNC(=O)[C@@H](CC(C)C)NC(=O)[C@H](NC(=O)CCCCCCCCCCCCCCC(=O)N[C@H](CC(N)=O)C(=O)N[C@@H](Cc2ccccc2)C(=O)O)C(C)O)cc1 (stereo partly specified) [Pepstatin analog, 7]  720 nM
